From patent US11760784B2, “Compositions comprising PEDF-derived short peptides and uses thereof” (BRIM Biotechnology, Inc., priority 2016, dated 2023)

Key:
[1] = test system: IL-1β mRNA; experiment: Ocular IL-1β mRNA by quantitative real-time PCR in CEC dry eye mice; format: in vivo, C57BL6 mice; settings: CEC 14 days, then topical PDSP for 5 days
Experimental: (§1) Dry eye is associated with abnormalities in the pre-corneal tear film and subsequent inflammatory changes in the entire ocular surface including the adnexa, conjunctiva and cornea. (see, Hessen et al., “Dry eye: An Inflammatory Ocular Disease,” J. Ophthalmic Vis. Res., 2014, 9(2): 240-250). Therefore, the effects of PDSPs in corneal inflammatory responses were next examined. Briefly, C57BL6 mice were housed in CEC for 14 days (Day 0) and then treatment with PDSP or vehicle were performed for additional 5 days (Day 5). Then, mRNA levels for inflammatory factors were evaluated by quantitative real-time PCR.
(§2) The total RNA was extracted from cells using TRIzol (Invitrogen) and treated with RNase free DNase I (Qiagen, Santa Clarita, CA) to remove genomic DNA and then purified with an RNA purification kit (Dynabeads; Invitrogen). […] Quantitative real-time PCR was performed in a GeneAmp 7700 sequence detection system (Applied Biosystems, Foster City, CA). […] All determinations were measured in triplicate. The cycle threshold (Ct) values corresponded to the PCR cycle number at which fluorescence emission in real time reaches a threshold above the base-line emission were analyzed using GeneAmp 7700 SDS software. The Ct value of the PCR product of interest and a control mRNA (GAPDH) were then used to calculate relative quantities of mRNA between samples.

[2] = test system: IL-6 mRNA; experiment: Ocular IL-6 mRNA by quantitative real-time PCR in CEC dry eye mice; format: in vivo, C57BL6 mice; settings: CEC 14 days, then topical PDSP for 5 days
Experimental: as §1, §2

[3] = test system: intracellular ROS in rabbit corneal epithelial cells; experiment: Intracellular ROS (H2DCFDA probe) in NaCl-treated corneal epithelial cells; format: cell-based
Experimental: We therefore examined the effects of PDSP on the intracellular ROS and GSH levels in NaCl-treated (HOP) rabbit corneal epithelial cells. Briefly, rabbit corneal epithelial cells were pretreated with 10 μM PDSP or a negative control peptide (ConP) for 20 hours, followed by treatment with NaCl to induce hyperosmotic stress. After NaCl treatment for another 24 hours, cells were assessed for ROS using a 2′,7′-dichlorodihydrofluorescein diacetate (H2DCFDA) probe, which is an ROS indicator dye. […]
Intracellular ROS generation was assayed using 2′,7′-dichlorodihydrofluorescein diacetate (H2DCFDA; Molecular Probes, Eugene, Oreg.) which, when oxidized by ROS, releases the green fluorescent compound 2′,7′-dichlorofluorescein (DCF). […] Fluorescence (excitation, 488 nm; emission, 520 nm) was measured with a Spectra MAX GEMINI Reader (Molecular Devices, Sunnyvale, Calif., USA). The background fluorescence from control wells without the addition of H2DCFDA was subtracted from the experimental readings.
To investigate the effect of hyperosmotic stress on the intracellular ROS formation, rabbit corneal epithelial cells were cultured in a hyperosmotic medium (463 mOsM) by adding 90 mM NaCl for 24 hours. The intracellular ROS levels were detected by H2DCFDA probe and measured the formation of DCF-fluorescence by spectrofluorometer.

[4] = test system: TNF-α mRNA; experiment: Ocular TNF-α mRNA by quantitative real-time PCR in CEC dry eye mice; format: in vivo, C57BL6 mice; settings: CEC 14 days, then topical PDSP for 5 days
Experimental: as §1, §2

PDSP: 29mer, residues 93-121 of human PEDF: SLGAEQRTESIIHRALYYDLISSPDIHGT (SEQ ID NO:4) (listed as Homo sapiens)
repression of ocular IL-1β mRNA expression compared to vehicle-treated group [1]: 2.4 fold
repression of ocular IL-6 mRNA expression compared to vehicle-treated group [2]: 2.0 fold
DCF fluorescence without HOP (peptide alone) ([3]; 10 μM PDSP, isotonic medium, compared to untreated): did not increase DCF fluorescence
suppression of DCF-fluorescence level compared to cells treated with NaCl alone ([3]; 10 μM peptide pretreatment 20 hours, then hyperosmotic medium (463 mOsM, 90 mM NaCl) 24 hours): 1.3 fold
repression of ocular TNF-α mRNA expression compared to vehicle-treated group [4]: 1.9 fold
